From US20130203718A1 (priority 2010, published 2013)

Experiments:
[1] = system: PRB-mediated amphiregulin gene transcription; assay: Quantitative RT-PCR of endogenous gene transcription in MDA-MB-231 iPRAB cells; format: cell-based, human; conditions: APRn 1 μM, 6 h, FIG. 10
Method: MDA-MB-231 iPRAB cells were cultured in 6-well plates in RPMI 1640 medium with L-glutamine without phenol red, enriched with 5% DCC serum containing inducer ligand RSL1 (500 nM) or Dox (1 μg/ml) for PRA or PRB expression during 24 h. […] Total RNA was then extracted using TRIZOL reagent (Invitrogen). One μg of total RNA was treated with DNase I Amplification Grade (Invitrogen) and then reverse transcribed using cDNA RT kit from Applied Biosystems (Courtaboeuf, France) and random primers. Following a ten-fold dilution, the cDNA samples were amplified in duplicate by real-time PCR in ABI 7300 apparatus (Applied Biosystems), using the Power SYBR Green PCR Master Mix (Applied Biosystems) in the presence of 300 nM of forward and reverse specific primers. A dissociation curve was also obtained at the end of the reaction to verify the specificity of the pair of primers. Standard curve for PCR calibration of each gene transcript tested was obtained with the corresponding amplicon subcloned in pGEMT-easy (Promega) and verified by sequencing analysis. The expression level of each gene transcript was normalized to 18S RNA level, and results were expressed as means of relative concentrations of six samples (attomole of specific gene cDNA/femtomole of 18S cDNA±SEM.)
The selected APRn (APR16, APR19, APR43, APR47, APR51, APR54) were verified for their agonist and antagonistic properties on endogenous gene transcription. A ligand activated PRB target gene, amphiregulin was selected for these studies (Georgiakaki, M. Mol Endocrinol 2006, 20, 2122) and quantitative RT-PCR analysis was performed in MDA-MB-231 iPRAB cells as described in Materials and Methods.

hPRB and NCoR = biological target: T1, hPRB and NCoR (Homo sapiens, UniProt P06401); assay: Mammalian two hybrid assay, recruitment of co-repressor NCoR by hPRB; format: cell-based; conditions: HEK293T, FIGS. 12 and 14
T1 construct: expressed in transfected cells; host or cells: HEK 293T
T1 sequence (P06401 1-933): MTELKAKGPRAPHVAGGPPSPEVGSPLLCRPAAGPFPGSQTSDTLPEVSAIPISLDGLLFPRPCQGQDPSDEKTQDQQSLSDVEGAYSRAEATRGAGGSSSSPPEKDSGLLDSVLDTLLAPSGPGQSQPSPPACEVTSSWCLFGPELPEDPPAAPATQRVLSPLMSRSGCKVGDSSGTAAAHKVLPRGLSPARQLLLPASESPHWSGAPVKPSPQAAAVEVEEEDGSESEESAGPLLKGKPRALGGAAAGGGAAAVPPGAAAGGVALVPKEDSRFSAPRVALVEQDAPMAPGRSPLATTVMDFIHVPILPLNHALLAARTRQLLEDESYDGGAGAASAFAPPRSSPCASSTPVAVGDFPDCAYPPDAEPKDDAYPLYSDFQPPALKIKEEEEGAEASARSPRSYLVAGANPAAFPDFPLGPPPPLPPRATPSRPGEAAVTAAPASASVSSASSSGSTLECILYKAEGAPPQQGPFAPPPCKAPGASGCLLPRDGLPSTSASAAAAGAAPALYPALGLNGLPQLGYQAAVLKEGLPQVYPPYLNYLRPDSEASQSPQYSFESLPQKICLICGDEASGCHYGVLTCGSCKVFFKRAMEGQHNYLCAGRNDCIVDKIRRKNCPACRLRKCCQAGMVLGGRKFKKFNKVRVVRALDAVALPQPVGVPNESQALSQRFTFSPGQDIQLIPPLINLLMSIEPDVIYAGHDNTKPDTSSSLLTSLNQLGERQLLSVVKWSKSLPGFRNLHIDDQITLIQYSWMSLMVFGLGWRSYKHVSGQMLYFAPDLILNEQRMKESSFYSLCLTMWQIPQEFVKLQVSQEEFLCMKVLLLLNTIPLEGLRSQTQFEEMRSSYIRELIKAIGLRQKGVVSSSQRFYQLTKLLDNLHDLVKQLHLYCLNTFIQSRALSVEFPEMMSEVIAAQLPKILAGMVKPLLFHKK
Method: (§1) Mammalian Two Hybrid Assays.
(§2) To investigate whether hPR was able to recruit transcriptional corepressors upon APRn binding, two hybrid assays have been performed in HEK 293T cells. Cell transfection were carried out according to the protocol used for the PR transactivation assays, with 1 μg of pGAL4-SMRT or pGAL4-NcoR, 2.5 μg of the PR expression vector pV16-PR and 5 μg of the reporter pG5-luc. The plasmid pGAL4-SMRT and pGAL4-NcoR, provided by P. Balaguer, encode the fusion protein between the GAL4 DNA-binding domain (GAL4DBD) and the receptor interacting domain (RID) of the corepressor […], respectively. The expression vector pV16PR encodes the VP16 activation domain of herpes simplex virus fused to the entire hPR and pG5-luc, provided by P. Fuller, encodes the luciferase gene driven by a GAL4-responsive promoter. […] Cell transfection were carried out according to the PR transactivation assays, by using 2 μg of pM-TIF2/Nter-RID or […], 2 μg of the expression vector pV16PR and 5 μg of the reporter pG5luc. The plasmids pM-TIF2/Nter-RID encodes the fusion proteins between the GAL4 DBD and the 1-867 TIF2 sequence corresponding to the Nter and RID domains. The plasmids pMTIF2-Nter encodes the fusion proteins between the GAL4 DBD and the 1-623 TIF2 sequence corresponding to the Nter domain. After 16 h incubation, the transfected cells were washed with PBS containing 2.5 mM EDTA, trypsinized and replated in 24-well plates. […] Cells were lysed and the luciferase and activities were quantified by using a Mithras reader microplates (Berthold).
Both agonist- and antagonist-bound PR regulate gene transcription with the assistance of transcriptional co-repressors (NCoR, SMRT) or co-activators (namely, TIF-2). To characterize the mechanism by which APRn inactivate hPRB, the capacity of hPRB to recruit transcriptional co-regulators upon APRn binding has been evaluated. […]

hPRB and TIF-2 = biological target: T2, hPRB and TIF-2 (Homo sapiens, UniProt P06401); assay: Mammalian two hybrid assay, recruitment of co-activator TIF-2 (TIF-2-Nter, TIF-2-NterRID) by hPRB; format: cell-based; conditions: HEK293T; for recruitment of co-activator TIF-2 sequences by hPRB upon ligand binding: TIF-2-Nter and TIF-2-NterRID, FIGS. 15-17; for inhibition of progesterone induced TIF-2 recruitment by hPRB: two hybrid, FIG. 18
T2 construct: expressed in transfected cells; host or cells: HEK 293T
T2 sequence (P06401 1-933): T1 sequence (P06401 1-933)
Method: as §1, §2
Both agonist- and antagonist-bound PR regulate gene transcription with the assistance of transcriptional co-repressors (NCoR, SMRT) or co-activators (namely, TIF-2). To characterize the mechanism by which APRn inactivate hPRB, the capacity of hPRB to recruit transcriptional co-regulators upon APRn binding has been evaluated. With this aim, mammalian two-hybrid assays in HEK293T cells have been performed by using two series of fusion proteins: (i) the VP16 activation domain of herpes simplex virus fused to the entire hPRB and (ii) the GAL4 DNA-binding domain (DBD) fused to the receptor interacting domain (RID) of corepressors (NCoR and SMRT), the GAL4 DBD fused to the 1-867 sequence of the co-activator TIF2 (corresponding to the Nter and RID domains), the GAL4 DBD fused to the 1-623 sequence of TIF2 (corresponding to the Nter domain).
Further, the capacity of hPRB to bind the co-activator TIF-2 was examined. The two-hybrid assays were performed with the TIF-2 sequence encompassing its N-ter region alone (TIF-2-Nter) or the sequence including the N-ter and the RID regions (TIF-2-NterRID).

Compound	agonistic effect on amphiregulin gene transcription [1]	recruitment of co-repressor NCoR by hPRB upon ligand binding (hPRB and NCoR)	recruitment of co-activator TIF-2 sequences by hPRB upon ligand binding (hPRB and TIF-2)	inhibition of progesterone induced TIF-2 recruitment by hPRB (hPRB and TIF-2)
CC(=O)[C@H]1CC[C@H]2[C@@H]3CC=C4C[C@@H](F)CC[C@]4(C)[C@H]3CC[C@]12C [APR-16, 3β-Fluoropregn-5-en-20-one]	nearly unable to exert agonistic effect	unable to recruit	unable to recruit the two TIF-2 sequences	able to inhibit the progesterone induced TIF-2 recruitment
C[C@]12CCC3C(CC=C4C[C@@H](F)CC[C@@H]43)C1CCC2=O (stereo partly drawn) [APR-47, 3β-Fluoro-19-nor-androst-5-en-17-one]	nearly unable to exert agonistic effect	unable to recruit	unable to recruit the two TIF-2 sequences	able to inhibit the progesterone induced TIF-2 recruitment
CC#C[C@]1(O)CCC2C3CC[C@H]4CCCC[C@@H]4C3CC[C@@]21C (stereo partly drawn) [APR-54, 17α-(1-Propynyl)-19-nor-5-androstan-17β-ol]	nearly unable to exert agonistic effect	unable to recruit	unable to recruit the two TIF-2 sequences	able to inhibit the progesterone induced TIF-2 recruitment
